Data taken from patent publication US8357504B2, “Method and kit for the microbiological determination of vitamins in substance mixtures” (IFP Privates Institut fur Produktqualitat GmbH, priority 2004, dated 2013).
“And” between values parts separate entries of the source, which are not always exact repeats. Equal values may be shown once.

Experiments:
[1] = system: Lactobacillus plantarum (ATCC 8014); conditions: cited from earlier work
[2] = system: Lactobacillus delbrueckii subsp. Lactis (L. leichmanii) ATCC 7830; experiment: Microbiological vitamin B12 determination (growth turbidity, B12 assay medium); format: cell-based; conditions: for Average value (measurement at 630 nm): number 3; for Measurement at 630 nm: single well
Source text: The preparation of the microtitration plate and the determination of vitamin B12 (cyanocobalamine, hydroxycobalamine) was effected as in Example 1, except only that Lactobacillus delbrueckii subsp. Lactis (L. leichmanii) ATCC 7830 was employed as test organism. As assay medium there served Difco™ B12 assay medium, containing casamino acids 15.0 g/L, dextrose 40.0 g/L, asparagine 0.2 g/L, sodium acetate 20.0 g/L, Ascorbic acid 4.0 g/L, L-cystein 4.0 g/L, DL-tryptophane 0.4 g/L, adenine sulfate 20.0 mg/L, guanine hydrochloride 20.0 mg/L, uracil 20.0 mg/L, xanthin 20.0 mg/L, polysorbate-80 2.0 g/L, magnesium sulfate (water-free) 0.4 mg/L, sodium chloride 20.0 mg/L, iron sulfate 20.0 mg/L, manganese sulfate 20.0 mg/L, riboflavin 1.0 mg/L, p-aminobenzoic acid 2.0 mg/L, pyridoxine hydrochloride 4.0 mg/L, thiamine hydrochloride 1.0 mg/L, calcium pantothenate 1.0 mg/L, niacin 2.0 mg/L, biotin 10.0 ug/L, pyridoxine hydrochloride 4.0 mg/L, pyridoxal hydrochloride 4.0 mg/L, pyridoxamine hydrochloride 800.0 ug/L, […], potassium dihydrogen phosphate 1.0 g/L, dipotassium hydrogen phosphate 1.0 g/L. The storage medium further contained 200 mM trehalose.

[3] = system: Lactobacillus plantarum ATCC 8014; experiment: Microbiological biotin determination (growth turbidity, biotin assay medium); format: cell-based; conditions: for Average value (measurement at 630 nm): number 3; for Measurement at 630 nm: single well
Protocol: The preparation of the microtitration plate and determination of biotin was effected as in Example 1 with Lactobacillus plantarum ATCC 8014. There served as assay medium Difco™ biotin assay medium, containing casamino acids 12.0 g/L, dextrose 40.0 g/L, sodium acetate 20.0 g/L, L-cystein 0.2 g/L, DL-tryptophane 0.2 g/L, adenine sulfate 20.0 mg/L, guanine hydrochloride 20.0 mg/L, uracil 20.0 mg/L, thiamine hydrochloride 2.0 mg/L, riboflavin 2.0 mg/L, niacin 2.0 mg/L, calcium pantothenate 2.0 mg/L, pyridoxine hydrochloride 4.0 mg/L, p-aminobenzoic acid 0.2 mg/L, magnesium sulfate (water-free) 0.4 mg/L, sodium chloride 20.0 mg/L, iron sulfate 20.0 mg/L, manganese sulfate 20.0 mg/L, potassium dihydrogen phosphate 1.0 g/L, dipotassium hydrogen phosphate 1.0 g/L. The storage medium further contain 200 mM trehalose. The determined standard curve is show in FIG. 4.

[4] = system: Lactobacillus rhamnosus ATCC 7469; experiment: Microbiological riboflavin determination (growth turbidity, riboflavin assay medium); format: cell-based; conditions: for Average value (measurement at 630 nm): number 3; for Measurement at 630 nm: single well
Source text: The preparation of the microtitration plate and the determination of riboflavin was effected as in Example 1, except only that Lactobacillus rhamnosus ATCC 7469 was employed as test organism. As assay medium there was employed Difco™ riboflavin assay medium, containing cas amino acids 10.0 g/L, dextrose 20.0 g/L, sodium acetate 15.0 g/L, dipotassium hydrogen phosphate 1.0 g/L, potassium dihydrogen phosphate 1.0 g/L, L-asparagine 0.6 g/L, L-cystine 0.2 g/L, DL-tryptophane 0.2 g/L, magnesium sulfate 0.4 g/L, adenine sulfate 20.0 mg/L, guanine hydrochloride 20.0 mg/L, uracil 20.0 mg/L, xanthin 20 mg/L, iron sulfate 20.0 mg/L, manganese sulfate 20.0 mg/L, sodium chloride 20.0 mg/L, pyridoxine hydrochloride 4.0 mg/L, pyridoxal hydrochloride 4.0 mg/L, p-aminobenzoic acid 2.0 mg/L, calcium pantothenate 800 μg/L, folic acid 800 μg/L, nicotinic acid 800 μg/L, thiamine hydrochloride 400 μg/L, biotin 1.0 μg/L. The storage medium additionally contained 200 mM trehalose.

[5] = system: Lactobacillus rhamnosus ATCC 7469; experiment: Microbiological folic acid determination (growth turbidity, folic acid-casein medium); format: cell-based; conditions: for Average value (measurement at 630 nm): number 3; for Measurement at 630 nm: single well
Source text: The preparation of the microtitration plate and the determination of folic acid (pteroylglutaminic acid and other folic acid conjugates) was effected as in Example 1, except only that Lactobacillus rhamnosus ATCC 7469 was employed as test organism. There was employed as assay medium Difco™ folic acid-casein medium, containing activated carbon treated pancreas digested casein 10.0 g/L, dextrose 40.0 g/L, sodium acetate 40.0 g/L, potassium dihydrogen phosphate 1.0 g/L, dipotassium hydrogen phosphate 1.0 g/L, DL-tryptophane 0.2 g/L, L-asparagine 0.6 g/L, L-cystein hydrochloride 0.5 g/L, adenine sulfate 10.0 mg/L, guanine hydrochloride 10.0 mg/L, uracil 10.0 mg/L, xanthin 20.0 mg/L, Polysorbate-80 0.1 g/L, glutathion (reduced) 5.0 mg/L, magnesium sulfate 0.2 g/L, sodium chloride 20.0 mg/L, iron sulfate 20.0 mg/L, manganese sulfate 15.0 mg/L, riboflavin 1.0 mg/L, p-aminobenzoic acid 2.0 mg/L, pyridoxine hydrochloride 4.0 mg/L, thiamine hydrochloride 400.0 μg/L, calcium pantothenate 800.0 μg/L, nicotinic acid 800.0 μg/L, biotin 20.0 μg/L, 0.05% ascorbic acid. The storage medium contained 200 mM trehalose. The folic acid standard was dissolved in 100 mMol potassium phosphate buffer, pH 6.1, 0.1% ascorbic acid.

[6] = system: Saccharomyces cerevisae ATCC 9080; experiment: Microbiological B6 pyridoxine determination (growth turbidity, pyridoxine-Y-medium); format: cell-based; conditions: for Average value (measurement at 630 nm): number 3; for Measurement at 630 nm: single well
Protocol: The preparation of the microtitration plate and the determination of B6-pyridoxine was effected as in Example 1, except only that as test organism Saccharomyces cerevisae ATCC 9080 was employed. As assay medium there was employed Difco™ pyridoxine-Y-medium, containing dextrose 40.0 g/L, L-asparagine 4.0 g/L, ammonium sulfate 4.0 g/L potassium dihydrogen phosphate 3.0 g/L, magnesium sulfate 1.0 g/L, calcium chloride 0.49 g/L, DL-methionine 40.0 mg/L, DL-tryptophane 40.0 mg/L, DL-isoleucin 40.0 mg/L, DL-valin 40.0 mg/L, L-histidine hydrochloride 20.0 mg/L, riboflavin 20.0 mg/L, biotin 8.0 mg/L, inositol 5.0 mg/L, iron sulfate 500 μg/L, thiamine hydrochloride 400.0 μg/L, calcium pantothenate 400.0 μg/L, nicotinic acid 400.0 μg/L, boric acid 200.0 μg/L, potassium iodide 200.0 μg/L, ammonium molybdate 40.0 μg/L, manganese sulfate 80.0 μg/L, copper sulfate 90.0 μg/L, zinc sulfate 80.0 μg/L. The storage medium further contained 200 mM trehalose.

[7] = system: Lactobacillus planatarum ATTC 8014; experiment: Microbiological calcium pantothenate determination (growth turbidity); format: cell-based; conditions: for Average value (measurement at 630 nm): number 3; for Measurement at 630 nm: single well
Protocol: [table] The preparation of the microtitration plate and the determination of […] 800 μg/L, p-aminobenzoic acid 200.0 μg/L, biotin 1.0 μg/L, potassium dihydrogen phosphate 1.0 g/L, dipotassium hydrogen phosphate 1.0 g/L, magnesium sulfate 0.4 g/L, sodium chloride 20.0 mg/L, iron sulfate 20.0 mg/L, manganese sulfate 20.0 mg/L. The storage medium further contained 200 mM trehalose.

[8] = vitamin B12 standard 0.1 μg/100 g
[9] = vitamin B12 standard 0.2 μg/100 g
[10] = vitamin B12 standard 0.3 μg/100 g
[11] = vitamin B12 standard 0.4 μg/100 g
[12] = vitamin B12 standard 0.8 μg/100 g
[13] = riboflavin standard 0.1 mg/100 g
[14] = riboflavin standard 0.2 mg/100 g
[15] = riboflavin standard 0.3 mg/100 g
[16] = riboflavin standard 0.4 mg/100 g
[17] = riboflavin standard 0.5 mg/100 g
[18] = folic acid standard 3.75 pg/150 μl (0.25 μg/100 g)
[19] = folic acid standard 7.5 pg/150 μl (0.5 μg/100 g)
[20] = folic acid standard 15 pg/150 μl (1 μg/100 g)
[21] = folic acid standard 22.5 pg/150 μl (1.5 μg/100 g)
[22] = folic acid standard 30 pg/150 μl (2 μg/100 g)
[23] = B6-pyridoxine standard 0.004 mg/100 g
[24] = B6-pyridoxine standard 0.008 mg/100 g
[25] = B6-pyridoxine standard 0.012 mg/100 g
[26] = B6-pyridoxine standard 0.016 mg/100 g
[27] = B6-pyridoxine standard 0.024 mg/100 g
[28] = Ca pantothenate standard 0.08 mg/100 g
[29] = Ca pantothenate standard 0.16 mg/100 g
[30] = Ca pantothenate standard 0.32 mg/100 g
[31] = Ca pantothenate standard 0.48 mg/100 g
[32] = Ca pantothenate standard 0.64 mg/100 g

Niacytine
Consumption by the test organism [1]: not consumed

cyanocobalamine [Vitamin B12]
Average value (measurement at 630 nm) [2, 8]: 0.268 | Measurement at 630 nm [2, 8]: 0.264 and 0.271 and 0.269 | Average value (measurement at 630 nm) [2, 9]: 0.515 | Measurement at 630 nm [2, 9]: 0.51 and 0.503 and 0.531 | Average value (measurement at 630 nm) [2, 10]: 0.728 | Measurement at 630 nm [2, 10]: 0.727 and 0.721 and 0.736 | Average value (measurement at 630 nm) [2, 11]: 0.869 | Measurement at 630 nm [2, 11]: 0.88 and 0.863 and 0.865 | Average value (measurement at 630 nm) [2, 12]: 1.069 | Measurement at 630 nm [2, 12]: 1.086 and 1.073 and 1.048

O=C(O)CCCC[C@@H]1SC[C@@H]2NC(=O)N[C@@H]21 [Biotin, biotin]
Average value (measurement at 630 nm) ([3]; biotin standard 0.003 μg/100 g): 0.204 | Measurement at 630 nm ([3]; biotin standard 0.003 μg/100 g): 0.205 and 0.204 and 0.203 | Average value (measurement at 630 nm) ([3]; biotin standard 0.009 μg/100 g): 0.499 | Measurement at 630 nm ([3]; biotin standard 0.009 μg/100 g): 0.506 and 0.5 and 0.491 | Average value (measurement at 630 nm) ([3]; biotin standard 0.015 μg/100 g): 0.685 | Measurement at 630 nm ([3]; biotin standard 0.015 μg/100 g): 0.676 and 0.693 and 0.686 | Average value (measurement at 630 nm) ([3]; biotin standard 0.021 μg/100 g): 0.823 | Measurement at 630 nm ([3]; biotin standard 0.021 μg/100 g): 0.826 and 0.822 and 0.82 | Average value (measurement at 630 nm) ([3]; biotin standard 0.027 μg/100 g): 0.985 | Measurement at 630 nm ([3]; biotin standard 0.027 μg/100 g): 0.986 and 0.988 and 0.982

Cc1cc2nc3c(=O)[nH]c(=O)nc-3n(C[C@H](O)[C@H](O)[C@H](O)CO)c2cc1C [B2 Riboflavin, riboflavin]
Average value (measurement at 630 nm) [4, 13]: 0.204 | Measurement at 630 nm [4, 13]: 0.196 and 0.209 and 0.206 | Average value (measurement at 630 nm) [4, 14]: 0.398 | Measurement at 630 nm [4, 14]: 0.404 and 0.408 and 0.383 | Average value (measurement at 630 nm) [4, 15]: 0.623 | Measurement at 630 nm [4, 15]: 0.624 and 0.616 and 0.628 | Average value (measurement at 630 nm) [4, 16]: 0.759 | Measurement at 630 nm [4, 16]: 0.752 and 0.755 and 0.771 | Average value (measurement at 630 nm) [4, 17]: 0.88 | Measurement at 630 nm [4, 17]: 0.855 and 0.886 and 0.9

Nc1nc2ncc(CNc3ccc(C(=O)N[C@@H](CCC(=O)O)C(=O)O)cc3)nc2c(=O)[nH]1 [Folic acid, folic acid]
Average value (measurement at 630 nm) [5, 18]: 0.264 | Measurement at 630 nm [5, 18]: 0.269 and 0.261 | Average value (measurement at 630 nm) [5, 19]: 0.545 | Measurement at 630 nm [5, 19]: 0.556 and 0.536 and 0.544 | Average value (measurement at 630 nm) [5, 20]: 0.793 | Measurement at 630 nm [5, 20]: 0.784 and 0.788 and 0.807 | Average value (measurement at 630 nm) [5, 21]: 0.999 | Measurement at 630 nm [5, 21]: 0.986 and 1.002 and 1.01 | Average value (measurement at 630 nm) [5, 22]: 1.094 | Measurement at 630 nm [5, 22]: 1.121 and 1.074 and 1.087

Cc1ncc(CO)c(CO)c1O [B6-pyridoxine, pyridoxine]
Average value (measurement at 630 nm) [6, 23]: 0.299 | Measurement at 630 nm [6, 23]: 0.298 and 0.297 and 0.301 | Average value (measurement at 630 nm) [6, 24]: 0.4 | Measurement at 630 nm [6, 24]: 0.407 and 0.398 and 0.394 | Average value (measurement at 630 nm) [6, 25]: 0.538 | Measurement at 630 nm [6, 25]: 0.522 and 0.541 and 0.552 | Average value (measurement at 630 nm) [6, 26]: 0.753 | Measurement at 630 nm [6, 26]: 0.73 and 0.766 and 0.762 | Average value (measurement at 630 nm) [6, 27]: 1.069 | Measurement at 630 nm [6, 27]: 1.049 and 1.088 and 1.07

calcium pantothenate [Ca pantothenate]
Average value (measurement at 630 nm) [7, 28]: 0.076 | Measurement at 630 nm [7, 28]: 0.075 and 0.08 and 0.073 | Average value (measurement at 630 nm) [7, 29]: 0.179 | Measurement at 630 nm [7, 29]: 0.179 and 0.178 and 0.181 | Average value (measurement at 630 nm) [7, 30]: 0.395 | Measurement at 630 nm [7, 30]: 0.389 and 0.404 and 0.392 | Average value (measurement at 630 nm) [7, 31]: 0.491 | Measurement at 630 nm [7, 31]: 0.49 and 0.493 and 0.491 | Average value (measurement at 630 nm) [7, 32]: 0.59 | Measurement at 630 nm [7, 32]: 0.589 and 0.594 and 0.588
